In PubChem BioAssay (NCI) one finds TGI and GI50 data, which are given here for 12 compounds.

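Where inhibition never reached the appropriate level, the endpoint shown equals the highest concentration tested. Otherwise, values were interpolated linearly from a five-concentration, 48-hour dose response in 96-well plates. GI50 is the concentration that inhibits growth by half. The concentration for full growth arrest is given as TGI.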 Some results are limits rather than exact numbers.

Some test systems named below: MOLT-4 leukemia; SN12C renal; RPMI-8226 leukemia; NCI/ADR-RES ovarian; PC-3 prostate; MDA-MB-231 breast; TK-10 renal; HT29 colon; NCI-H460 lung; CCRF-CEM leukemia.
Holding throughout (assay): inhibition of tumour cell growth, NCI panel, 48 h

With `Oc1c(Br)cc(Br)cc1CN(Cc1cc(Br)cc(Br)c1O)C1CCCCC1`, the TGI in the test on MOLT-4 leukemia was more than 100 µM; in the test with SN12C renal, more than 100 µM; with RPMI-8226 leukemia, more than 100 µM; in the test with NCI/ADR-RES ovarian it was more than 100 µM; in the test on PC-3 prostate, 50.5 µM; in the test on MDA-MB-231 breast, 72.4 µM. For the same compound, the TGI in the test with TK-10 renal was found to be 61 µM; with HT29 colon, 64.8 µM.
Turning to `CCC1CCc2nc3sc(C(=O)Nc4ccccc4F)c(N)c3cc2C1` (stereo unspecified), the GI50 was 0.471 µM in the test on MOLT-4 leukemia; more than 100 µM in the test on SN12C renal; 0.94 µM with RPMI-8226 leukemia; 9.5 µM with NCI/ADR-RES ovarian; 18.8 µM in the test with PC-3 prostate; 2.71 µM with NCI-H460 lung. Besides, the GI50 in the test on MDA-MB-231 breast is more than 100 µM; in the test with CCRF-CEM leukemia, 1.72 µM; with HT29 colon, 0.915 µM. The TGI with MOLT-4 leukemia, in the test on SN12C renal, with RPMI-8226 leukemia, in the test with NCI/ADR-RES ovarian, in the test with PC-3 prostate and in the test with NCI-H460 lung was more than 100 µM in each case. For the same compound, the TGI in the test on MDA-MB-231 breast, in the test on CCRF-CEM leukemia and in the test with HT29 colon was more than 100 µM throughout.
As to `N=c1nc(N)c2cc3c(N)nc(=N)c3cc12`, the TGI in the test on MOLT-4 leukemia is more than 61 µM; with SN12C renal, 23.5 µM; in the test with RPMI-8226 leukemia, 23.9 µM; with PC-3 prostate, more than 100 µM; with NCI-H460 lung, more than 100 µM; in the test on MDA-MB-231 breast it was 8.09 µM. Also, the TGI with CCRF-CEM leukemia was 26.8 µM; in the test on TK-10 renal, 57.2 µM; in the test on HT29 colon, more than 100 µM.
With `O=C1C(=O)c2cc([N+](=O)[O-])ccc2-c2ccccc21`, the GI50 is 1.66 µM with SN12C renal; 2.21 µM in the test on RPMI-8226 leukemia; 1.66 µM in the test on NCI/ADR-RES ovarian; 1.97 µM in the test on PC-3 prostate; 1.78 µM in the test with NCI-H460 lung; 1.64 µM in the test with MDA-MB-231 breast. The GI50 was 1.77 µM in the test with TK-10 renal and 1.95 µM with HT29 colon. The TGI in the test with SN12C renal was determined as 3.05 µM; in the test with RPMI-8226 leukemia, 4.7 µM; in the test with NCI/ADR-RES ovarian, 3.33 µM; in the test with PC-3 prostate it was 3.72 µM; in the test on NCI-H460 lung, 3.35 µM; with MDA-MB-231 breast, 3.15 µM. Besides, the TGI with TK-10 renal is 3.19 µM; with HT29 colon, 3.9 µM.
On to `C=C1C(=O)O[C@@H]2[C@H]1CC[C@H](C)[C@]1(O)CCC(=O)[C@@]21C`, for which the TGI with MOLT-4 leukemia, in the test with SN12C renal, in the test on RPMI-8226 leukemia, with NCI/ADR-RES ovarian, in the test on PC-3 prostate and in the test with CCRF-CEM leukemia was more than 10 µM each time. Besides, the TGI with TK-10 renal and in the test with HT29 colon was more than 10 µM throughout.
Consider `CCCCCCCCN(CCCCCCCC)C(=N)c1ccnc2ccccc12`, for which the GI50 in the test with SN12C renal was 1.16 µM; in the test on NCI/ADR-RES ovarian, 1.15 µM; in the test with PC-3 prostate, 1.16 µM; in the test with CCRF-CEM leukemia it was 0.466 µM; in the test on TK-10 renal it was 1.44 µM; with HT29 colon, 0.292 µM. In addition, the TGI in the test on SN12C renal was determined as 2.68 µM; in the test on NCI/ADR-RES ovarian, 2.5 µM; with PC-3 prostate, 2.52 µM; with CCRF-CEM leukemia it was 2.2 µM; in the test on TK-10 renal, 2.83 µM; in the test on HT29 colon it was 1.06 µM.
For `Cc1nc(NC(=S)NC(=O)c2ccc(Cl)c(Cl)c2)sc1C(=O)/C=C/c1ccccc1[N+](=O)[O-]`, the TGI with MOLT-4 leukemia is 52.6 µM; in the test with SN12C renal it was 61.7 µM; in the test on RPMI-8226 leukemia it was more than 100 µM; with NCI-H460 lung, more than 100 µM; with CCRF-CEM leukemia, 73.9 µM; with TK-10 renal, 71.3 µM. The same compound showed a TGI in the test on HT29 colon of 46 µM.
For the compound `O=c1c(O)c(-c2ccc(O)c(O)c2)oc2cc(O)ccc12`, the TGI in the test with MOLT-4 leukemia is more than 72.5 µM; in the test with SN12C renal, 56.4 µM; with RPMI-8226 leukemia it was more than 79.9 µM; in the test on NCI-H460 lung, 29.2 µM; in the test on CCRF-CEM leukemia, more than 71.1 µM; in the test on TK-10 renal, more than 88.8 µM. This compound came in with a TGI with HT29 colon of 98.8 µM.
For the compound `O=C1C2CC3C(CC2C(=O)[N]1[Sn]([c]1ccccc1)([c]1ccccc1)[c]1ccccc1)C1(Cl)C(Cl)=C(Cl)C3(Cl)C1(Cl)Cl` (stereo unspecified), the GI50 in the test with MOLT-4 leukemia is 0.0827 µM; in the test on SN12C renal it was 0.17 µM; with RPMI-8226 leukemia, 0.106 µM; with PC-3 prostate, 0.0958 µM; in the test on MDA-MB-231 breast it was 0.127 µM; with CCRF-CEM leukemia, 0.0645 µM. Besides, in the test with TK-10 renal, the GI50 was 0.145 µM. The TGI with MOLT-4 leukemia is 0.546 µM; in the test on SN12C renal it was 0.448 µM; in the test with RPMI-8226 leukemia it was 0.53 µM; with PC-3 prostate it was 0.315 µM; with MDA-MB-231 breast, 0.37 µM; in the test with CCRF-CEM leukemia, 0.371 µM. Further, the TGI in the test with TK-10 renal was 0.288 µM.
Take `CC1=CC(=O)C(C)(C2=NC(C)(C)CO2)c2ccccc21` (stereo unspecified): the TGI in the test with MOLT-4 leukemia, in the test with SN12C renal, in the test on RPMI-8226 leukemia, with NCI-H460 lung, with CCRF-CEM leukemia and in the test with TK-10 renal was more than 100 µM throughout. The compound further displayed a TGI with HT29 colon of more than 100 µM.
`CC(C)(Cl)CCC1=C(Cl)C(=O)c2ccccc2C1=O`: the GI50 with MOLT-4 leukemia was 1.91 µM; in the test with SN12C renal it was 3.64 µM; with RPMI-8226 leukemia, 1.78 µM; in the test with NCI/ADR-RES ovarian, 3.29 µM; with PC-3 prostate it was 2.27 µM; in the test with NCI-H460 lung, 3.31 µM. Moreover, the GI50 was 1.73 µM in the test on MDA-MB-231 breast, 1.22 µM in the test with CCRF-CEM leukemia and 15.6 µM in the test with HT29 colon. The TGI was 6.04 µM with MOLT-4 leukemia; 13.5 µM with SN12C renal; 4.65 µM in the test on RPMI-8226 leukemia; 19.5 µM in the test on NCI/ADR-RES ovarian; 8.07 µM with PC-3 prostate; 12.4 µM in the test with NCI-H460 lung. For the same compound, the TGI worked out at 3.65 µM in the test with MDA-MB-231 breast, 4.79 µM with CCRF-CEM leukemia and 31.5 µM in the test on HT29 colon.
On to `Nn1c(CCCl)nc2c(Br)cc(Br)cc2c1=O`, for which the TGI in the test with MOLT-4 leukemia was 61.3 µM; with SN12C renal, more than 84.2 µM; with RPMI-8226 leukemia, 58.5 µM; in the test on NCI-H460 lung, 65.1 µM; with CCRF-CEM leukemia, 20.3 µM; with TK-10 renal it was more than 100 µM. The TGI in the test with HT29 colon is more than 100 µM.
